Measured values from patent US20090317373A1, “Inhibition of the Anti-FVIII Immune Response” (Institut National De La Sante Et De La Recherche Medicale, priority 2005, published 2009).

What was measured:
[1] = target: T1, CTLD(4-7)-Fc (construct of the mannose receptor) (Mus musculus, UniProt Q61830); test: ELISA binding of mannose receptor construct CTLD(4-7)-Fc to coated ligands; details: ELISA plates coated with ligand; FIG. 3c
T1 construct: gift of Dr Luisa Martinez-Pomares, University of Nottingham
T1 sequence (Q61830 with tags, fused parts or gaps limits assumed): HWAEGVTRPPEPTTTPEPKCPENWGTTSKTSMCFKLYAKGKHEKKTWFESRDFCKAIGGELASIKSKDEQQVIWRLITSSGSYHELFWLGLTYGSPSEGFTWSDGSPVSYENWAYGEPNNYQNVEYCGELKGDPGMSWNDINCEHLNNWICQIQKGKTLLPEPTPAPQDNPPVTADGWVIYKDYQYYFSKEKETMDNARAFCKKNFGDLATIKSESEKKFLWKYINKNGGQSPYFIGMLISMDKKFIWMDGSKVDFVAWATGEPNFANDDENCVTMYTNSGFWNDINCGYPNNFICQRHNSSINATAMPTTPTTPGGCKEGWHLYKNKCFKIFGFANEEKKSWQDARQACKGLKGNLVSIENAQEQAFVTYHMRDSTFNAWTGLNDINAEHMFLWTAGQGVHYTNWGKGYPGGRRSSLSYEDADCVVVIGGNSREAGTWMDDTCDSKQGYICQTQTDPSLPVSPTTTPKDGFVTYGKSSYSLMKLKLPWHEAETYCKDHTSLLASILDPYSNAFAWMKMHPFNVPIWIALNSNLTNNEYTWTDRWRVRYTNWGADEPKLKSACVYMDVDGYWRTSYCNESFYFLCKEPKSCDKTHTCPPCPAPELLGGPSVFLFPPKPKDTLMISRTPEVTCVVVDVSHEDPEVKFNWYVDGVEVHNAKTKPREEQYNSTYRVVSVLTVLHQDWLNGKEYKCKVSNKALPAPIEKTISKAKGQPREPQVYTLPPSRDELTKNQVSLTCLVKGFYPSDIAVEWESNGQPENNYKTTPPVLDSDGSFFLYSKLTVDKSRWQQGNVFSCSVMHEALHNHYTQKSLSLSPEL
Method: Constructs of the mannose receptor, CTLD(4-7)-FC and CR-FNII-CTLD(1-3)-CR-Fc, were kindly donated by Dr Luisa Martinez-Pomares, School of Molecular Medical Sciences, Queen's Medical Centre, University of Nottingham, UK. The binding of the constructs to whole recombinant human FVIII and to B domain-deleted recombinant human FVIII was tested either directly by measuring the binding to ELISA plates coated with ligands (mannan was used as a positive control) or indirectly by inhibition tests. The ELISA plates (Nunc; MAXISORP) were coated overnight with dilution series of the FVIII forms (starting at 50 μg/ml) in 154 mM NaCl. TTBS buffer (Tris-HCl 10 mM, pH 7.5, Ca^2+ 10 mM, NaCl 154 mM and 0.05% Tween-20) was used for all the washings. The non-reactive sites were blocked by TBS buffer (TTBS without Tween-20) containing 3% BSA. The plates were then incubated with 2 or 10 μg/ml of the constructs for 2 h at room temperature in TTBS buffer containing 3% BSA. The binding of the MR constructs was detected using a mouse antibody specific for the Fc part of human IgG conjugated to HRP (clone JDC-10, Southern Biotechnology Associates, Inc. AL, USA). […] The absorbance was measured at 492 nm. For the inhibition tests, the plates were coated with each form of FVIII (5.56 μg/ml). […] The absorbance was measured as described above. […]

FVIII = FVIII (Homo sapiens, UniProt P00451); test: One-stage clotting test, residual FVIII activity in normal human plasma; type: biochemical; details: normal human plasma incubated with mannan 2 hours at 37° C.; FIG. 5a
Sequence of FVIII (P00451 20-1667 limits assumed): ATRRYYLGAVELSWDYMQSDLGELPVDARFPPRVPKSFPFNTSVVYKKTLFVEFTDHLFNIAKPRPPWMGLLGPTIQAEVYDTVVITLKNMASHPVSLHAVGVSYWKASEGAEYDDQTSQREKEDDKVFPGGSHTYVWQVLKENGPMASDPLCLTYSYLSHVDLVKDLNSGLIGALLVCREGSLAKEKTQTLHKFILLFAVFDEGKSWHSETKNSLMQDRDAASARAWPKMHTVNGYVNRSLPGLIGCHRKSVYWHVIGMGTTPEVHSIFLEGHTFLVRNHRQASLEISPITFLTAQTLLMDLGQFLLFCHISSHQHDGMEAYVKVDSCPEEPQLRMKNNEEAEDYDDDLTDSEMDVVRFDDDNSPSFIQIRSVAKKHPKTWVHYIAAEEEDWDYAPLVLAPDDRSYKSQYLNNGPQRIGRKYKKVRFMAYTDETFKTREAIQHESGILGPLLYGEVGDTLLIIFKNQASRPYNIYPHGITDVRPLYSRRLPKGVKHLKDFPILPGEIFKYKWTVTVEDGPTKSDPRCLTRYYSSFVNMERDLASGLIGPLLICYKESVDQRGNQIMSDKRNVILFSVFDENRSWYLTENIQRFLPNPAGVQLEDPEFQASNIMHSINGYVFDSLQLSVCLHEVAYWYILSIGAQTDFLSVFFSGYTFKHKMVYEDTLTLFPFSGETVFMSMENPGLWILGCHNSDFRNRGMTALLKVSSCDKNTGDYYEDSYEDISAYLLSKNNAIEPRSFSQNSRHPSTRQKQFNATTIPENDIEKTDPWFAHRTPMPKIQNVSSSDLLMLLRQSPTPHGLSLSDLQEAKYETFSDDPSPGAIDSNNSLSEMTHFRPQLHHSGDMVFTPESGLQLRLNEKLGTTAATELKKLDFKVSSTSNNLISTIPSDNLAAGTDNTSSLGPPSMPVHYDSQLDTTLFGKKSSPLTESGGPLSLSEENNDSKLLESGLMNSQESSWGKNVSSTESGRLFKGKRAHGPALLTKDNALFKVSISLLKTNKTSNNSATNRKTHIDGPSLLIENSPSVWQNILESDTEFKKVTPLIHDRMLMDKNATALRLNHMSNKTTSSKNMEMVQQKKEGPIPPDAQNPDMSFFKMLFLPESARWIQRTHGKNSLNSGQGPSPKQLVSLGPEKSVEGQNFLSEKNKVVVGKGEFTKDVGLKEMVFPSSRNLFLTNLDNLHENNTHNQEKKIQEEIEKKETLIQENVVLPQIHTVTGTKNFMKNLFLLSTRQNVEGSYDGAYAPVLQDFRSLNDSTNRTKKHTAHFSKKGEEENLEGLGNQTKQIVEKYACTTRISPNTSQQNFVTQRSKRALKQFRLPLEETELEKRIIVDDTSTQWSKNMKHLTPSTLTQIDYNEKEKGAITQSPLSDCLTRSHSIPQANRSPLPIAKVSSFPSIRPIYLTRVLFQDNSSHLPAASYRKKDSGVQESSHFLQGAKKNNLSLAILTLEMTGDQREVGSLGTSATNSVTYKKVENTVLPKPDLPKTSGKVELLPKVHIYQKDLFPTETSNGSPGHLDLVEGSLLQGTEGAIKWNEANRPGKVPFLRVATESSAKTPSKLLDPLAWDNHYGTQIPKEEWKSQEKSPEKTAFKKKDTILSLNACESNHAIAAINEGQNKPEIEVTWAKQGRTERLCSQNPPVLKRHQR
Sequence of FVIII (P00451 1668-2351 limits assumed): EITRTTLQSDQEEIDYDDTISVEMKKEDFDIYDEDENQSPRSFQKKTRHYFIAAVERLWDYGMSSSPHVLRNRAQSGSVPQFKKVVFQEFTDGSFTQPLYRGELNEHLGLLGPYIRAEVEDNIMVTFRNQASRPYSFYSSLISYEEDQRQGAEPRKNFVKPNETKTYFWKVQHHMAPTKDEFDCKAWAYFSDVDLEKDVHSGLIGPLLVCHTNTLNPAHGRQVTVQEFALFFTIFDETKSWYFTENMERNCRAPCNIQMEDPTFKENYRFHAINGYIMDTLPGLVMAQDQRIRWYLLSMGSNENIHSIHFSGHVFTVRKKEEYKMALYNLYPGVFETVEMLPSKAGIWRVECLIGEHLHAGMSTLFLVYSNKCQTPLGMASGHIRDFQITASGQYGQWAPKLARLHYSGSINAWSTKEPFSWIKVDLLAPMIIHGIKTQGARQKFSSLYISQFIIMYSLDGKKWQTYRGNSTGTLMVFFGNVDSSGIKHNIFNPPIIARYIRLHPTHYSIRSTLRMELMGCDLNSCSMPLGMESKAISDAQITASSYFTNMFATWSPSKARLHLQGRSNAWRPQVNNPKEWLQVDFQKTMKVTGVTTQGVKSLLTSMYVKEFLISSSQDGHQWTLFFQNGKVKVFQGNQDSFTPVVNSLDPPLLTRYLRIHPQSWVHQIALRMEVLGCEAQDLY
Method: Normal human plasma was incubated with an identical volume of mannan ([…]) for 2 hours at 37° C. The residual FVIII activity was measured in a one-stage clotting test using human placental […] as an activator (Dade Behring Marburg GmbH, Marburg, Germany) and FVIII-depleted plasma (Dade Behring Marburg GmbH, Marburg, Germany) as a substrate and a fibrin timer (Sysmex CA500, Dade Behring). The dilutions were performed in Owren-Koller buffer (Diagnostica Stago, Asnieres, France).

[2] = system: DCs according to Example 1; test: Internalization of demannosylated FVIII-BDD-FITC by DCs (FACS); type: cell-based, human
Method: Finally, the inhibition of the internalization of demannosylated FVIII-BDD labelled with FITC was measured. FVIII-BDD conjugated to FITC and treated with EndoF1 (0.143 μM) or untreated is incubated with DCs according to Example 1 (4×10^5 cells/well of 100 μl) in X-VIVO medium without serum at 37° C. or at 4° C. Beforehand, the cells were preincubated, where appropriate, with mannan (1 mg/ml) for 30 min at 37° C. After incubation for 2 hours, the cells are washed and the mean intensities (mfi) are measured by FACS. The internalization of FVIII-BDD is expressed with respect to the calculated mfi in the presence of untreated FVIII alone (cf. FIG. 8).

binding of FVIII to VWF = binding of FVIII to VWF (Homo sapiens, UniProt P00451); test: ELISA for binding of FVIII to VWF; details: FVIII preincubated with mannan (0.01 to 4 mg/ml); FIG. 5b
Sequence of binding of FVIII to VWF (P00451 20-1667 limits assumed): as the sequence (P00451 20-1667 limits assumed) above
Sequence of binding of FVIII to VWF (P00451 1668-2351 limits assumed): as the sequence (P00451 1668-2351 limits assumed) above
Method: ELISA plates (Nunc, Roskilde, Denmark) were coated with VWF (VWF, Willefectin, LFB, Les Ulis, France) at 2 μg/ml per well in PBS (pH 7.4) at 37° C. for 1 hour. The plates were saturated with PBS containing 1% skimmed milk and 0.1% Tween 20 for 1 hour at 37° C. FVIII (0.3 μg/ml) was preincubated by itself or with mannan (0.01 to 4 mg/ml) or with BO2C11 (human monoclonal anti-FVIII IgG) (0.05 to 40 μg/ml) in a blocking buffer for 1 hour at 37° C. and then added to the wells coated with VWF and incubated for 1 hour at 37° C. A mouse monoclonal anti-FVIII IgG (mAb6) (3 μg/ml) was incubated at 37° C. for 1 hour. […] No binding of FVIII was observed on the wells which had not been coated.

autologous CD4+ T cells = test: In vitro proliferation of autologous CD4+ T cells (tritiated thymidine); type: cell-based, human; details: DCs incubated with mannan (1 mg/ml) before FVIII; FIG. 4a
Method: The DCs of Example 1 were incubated with mannan (1 mg/ml) for 30 min at 37° C. FVIII dialyzed against RPMI 1640 medium (Kogenate, Bayer) was added (40 μg/ml, 0.143 μM) for 2 hours. The cells were then washed and incubated with LPS (1 μg/0.5 million cells) in complete medium for 48 hours. The cells were then washed and cultured (RPMI 1640 medium, supplemented with 10% male human AB serum, in 96-well cell culture plates with a round base with 200 μl per well) with autologous CD4+ T cells obtained from the PBMC of the corresponding donor using the MACS cell isolation kit (Miltenyi Biotech, Bergisch Gladbach, Germany). The number of CD4+ T cells was kept constant in each well (100,000 cells/well), while the number of DCs varied (5,000, 10,000 and 15,000 DCs in triplicate), giving a T:DC cell ratio of 20:1, 10:1, 6.6:1.
After culture for 4 days, 0.5 μCi of tritiated thymidine was added to each well. The cells were harvested after 16 hours and the radioactivity incorporated was counted.

binding to CTLD(4-7)-Fc [1]: specific binding | effect on proclotting activity of FVIII (FVIII): does not block | effect on interaction of FVIII with VWF (binding of FVIII to VWF): does not interfere
Substance: mannan
further reduction of internalization of EndoF1-treated FVIII ([2]; in the presence of mannan, results not shown): 32% | inhibition of the internalization of FVIII-BDD ([2]; with mannan (1 mg/ml), without deglycosylation, FIG. 8): 45±7% | proliferation of T cells (autologous CD4+ T cells): levels comparable to those of negative controls
